We go through 12 molecules from PMC12137140, “The fast-evolving FIKK kinase family of Plasmodium falciparum can be inhibited by a single compound” (Nature Microbiology, 2025).

As usually defined, the IC50 is the point on the concentration scale where inhibition reaches its midpoint.

SMILES strings stand for the structures.

T1 sequence (B9ZSH8 entry or part of it): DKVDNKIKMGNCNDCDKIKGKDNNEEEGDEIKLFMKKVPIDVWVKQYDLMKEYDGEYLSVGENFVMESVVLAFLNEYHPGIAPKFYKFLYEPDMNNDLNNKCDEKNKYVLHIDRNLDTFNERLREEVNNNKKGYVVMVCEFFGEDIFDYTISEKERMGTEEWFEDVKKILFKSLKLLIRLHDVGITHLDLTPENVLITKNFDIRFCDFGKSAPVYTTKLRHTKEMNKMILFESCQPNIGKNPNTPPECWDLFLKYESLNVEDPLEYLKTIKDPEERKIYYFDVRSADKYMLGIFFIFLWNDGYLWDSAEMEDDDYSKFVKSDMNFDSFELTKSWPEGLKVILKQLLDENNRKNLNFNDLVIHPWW

The first assay concerns the target T1, FIKK1 (Plasmodium falciparum, UniProt B9ZSH8).
T1 construct: gene PF3D7_0102600; recombinant kinase domain
Briefly: ADP-Glo kinase assay, % inhibition heat map (n = […]). Format: biochemical. Background: ADP-Glo turns the ADP formed in a reaction into a luminescent signal.
With `Cc1cc(O)c2c(c1)C(=O)c1cc(O)cc(O)c1C2=O` [Emodin], the “ADP-Glo kinase assay, % inhibition heat map (n = 3)” value is listed as “showed potency against all PfFIKKs (Fig. 6d)”.

The next assay deals with T2, FIKK8 (Plasmodium falciparum, UniProt C0H4R8).
T2 construct: gene PF3D7_0805700; recombinant FIKK8 kinase domain
T2 sequence (C0H4R8 entry or part of it): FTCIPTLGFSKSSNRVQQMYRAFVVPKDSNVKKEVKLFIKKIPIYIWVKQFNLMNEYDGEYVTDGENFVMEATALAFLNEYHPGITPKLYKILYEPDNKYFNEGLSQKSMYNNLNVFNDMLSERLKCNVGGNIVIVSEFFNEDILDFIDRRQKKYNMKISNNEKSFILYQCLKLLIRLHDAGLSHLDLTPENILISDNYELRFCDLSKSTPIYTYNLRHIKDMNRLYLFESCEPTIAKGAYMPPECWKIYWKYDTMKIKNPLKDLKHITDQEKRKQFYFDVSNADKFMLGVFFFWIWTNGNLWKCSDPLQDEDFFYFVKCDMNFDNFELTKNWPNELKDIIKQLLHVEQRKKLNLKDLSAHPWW
Briefly: biochemical. Set-up: ADP-Glo luminescence kinase assay, recombinant FIKK8 kinase domain, Po peptide substrate plus ATP, four-parameter IC50 fit. The method, then: Columns 6 and 18 of the microplates served as controls. Column 6 was a positive control (recombinant FIKK8 kinase domain + Po peptide ([…])[22] + ATP without compounds). Column 18 was a negative control (recombinant FIKK8 kinase domain + Po peptide − ATP). First, 3 µl kinase at 40 nM in kinase reaction buffer (20 mM MOPS, 10 mM magnesium chloride and 10 mM manganese chloride, pH 7.4 (Alfa Aesar)) was dispensed in each well using a Multidrop Combi Reagent dispenser (Thermo Fisher Scientific). Recombinant FIKK8 kinase domain was left to incubate in the presence of compounds for 15 min at room temperature. Then, 3 µl Po peptide + ATP at 20 µM each, diluted in kinase reaction buffer, was dispensed in each well except in column 18 in which 3 µl of peptide without ATP was dispensed. The kinase reaction was left to occur for 1 h and was stopped with 6 µl ADP-Glo reagent. Kinase activity was assessed after addition of 12 µl kinase detection reagent by measuring luminescence on a multimode microplate reader FLUOstar Omega (BMG Labtech).
In the case of `O=c1[nH]ccc2nc(N[C@@H]3CCNC3)nc(Nc3ccc4c(c3)S(=O)(=O)CC4)c12` [GSK2181306A], the IC50 is 31 ± 1.6 nM. Still for that read-out and setting: next, `COc1ccc(Nc2ncc(C#N)c(Nc3ccccc3C(N)=O)n2)cc1N1CCN(C)CC1` [GSK1558669A]: 89 ± 37 nM; `O=c1[nH]ccc2nc(N[C@@H]3CCNC3)nc(Nc3cc(Cl)cc(Cl)c3)c12` [GSK2188764A]: 60 ± 9.8 nM. Still for that read-out and setting: with `CCN(CC)Cc1ccc(Nc2nccc(-c3cnn4ncccc34)n2)cc1` [GW780056X] the figure was 332 ± 88 nM. For the molecule `CCNc1nccc(-c2c(-c3ccc(F)cc3)ncn2C2CCN(C)CC2)n1` [SB-226605], the IC50 worked out at 98 ± 6.6 nM. Still for that read-out and setting: next, `CN1CCC(n2cnc(-c3ccc(F)cc3)c2-c2ccnc(NC3CCNCC3)n2)CC1` [SB-229482]: 24 ± 1.7 nM. Same read-out and setting: next, `Cc1cccc(Nc2nc(N[C@H]3CCNC3)ncc2C(N)=O)c1` [GSK2197149A]: 315 ± 52 nM; `CN1CCC(n2cnc(-c3ccc(F)cc3)c2-c2ccnc(NCCO)n2)CC1` [SB-226879]: 176 ± 20 nM. On the same count and under the same terms, next, `O=c1[nH]ccc2nc(N[C@@H]3CCCNC3)nc(Nc3ccc(S(=O)(=O)N4CCOCC4)cc3)c12` [GSK2177277A]: 48 ± 4.4 nM; `CCN1CCC(CC(=O)Nc2n[nH]c3nc(-c4cccs4)c(Br)cc23)CC1` [SB-739245-AC]: 238 ± 28 nM. As for `O=C(Nc1n[nH]c2nnc(-c3cccnc3)cc12)C1CC1` [SB-675259-M], the IC50 was determined as 168 ± 21 nM.

In another assay the target is T3, FIKK13 (Plasmodium falciparum, UniProt A0A143ZWL4).
T3 construct: gene PF3D7_1371700; recombinant kinase domain
T3 sequence (A0A143ZWL4 entry or part of it): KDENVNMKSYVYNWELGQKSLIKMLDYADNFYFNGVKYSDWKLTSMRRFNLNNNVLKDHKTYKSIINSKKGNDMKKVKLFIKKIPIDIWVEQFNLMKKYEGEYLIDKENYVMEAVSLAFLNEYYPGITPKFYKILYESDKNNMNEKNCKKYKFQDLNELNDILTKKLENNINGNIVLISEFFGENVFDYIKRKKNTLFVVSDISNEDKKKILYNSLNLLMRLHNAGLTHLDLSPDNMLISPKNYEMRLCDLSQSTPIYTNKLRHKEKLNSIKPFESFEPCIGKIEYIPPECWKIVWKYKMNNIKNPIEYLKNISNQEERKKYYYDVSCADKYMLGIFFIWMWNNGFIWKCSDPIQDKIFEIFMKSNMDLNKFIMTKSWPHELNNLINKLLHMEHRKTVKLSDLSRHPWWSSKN
Briefly: ADP-Glo kinase assay, % inhibition heat map (n = […]). The format is biochemical.
For `Cc1cc(O)c2c(c1)C(=O)c1cc(O)cc(O)c1C2=O` [Emodin], the “ADP-Glo kinase assay, % inhibition heat map (n = 3)” value is “showed potency against all PfFIKKs (Fig. 6d)”.
